Results taken from PMC4240912, “Multifaceted interplay between lipophilicity, protein interaction and luminescence parameters of non-intercalative ruthenium(II) polypyridyl complexes controlling cellular imaging and cytotoxic properties” (Journal of Biological Inorganic Chemistry, 2014).
One block for each molecule: values may come before it.

Assays:
[1] = tested on: Calf thymus deoxyribonucleic acid; experiment: DNA absorption titration (intrinsic DNA-binding constant); settings: [Ru] = 10 µM, 0.05 M Tris/HCl pH 7.4, 37 °C
Description: Calf thymus deoxyribonucleic acid was purchased from Sigma-Aldrich and its stock solution was prepared by dissolving of solid DNA in water. DNA concentrations per nucleotide were determined by absorption spectroscopy using the molar absorption coefficient of 6,600 M^−1cm^−1 at the wavelength of 260 nm. DNA-binding experiments were performed in 0.05 M Tris/HCl buffer (pH 7.4) at 37 °C. […] Ruthenium–DNA solutions were allowed to incubate for 5 min before the spectra were recorded. The intrinsic DNA-binding constant was calculated from the following Eq. [4]. DNA/εa-εf=DNA/εa-εf+1/Kbεb-εf, where [DNA] is the total DNA concentration in nucleotides, ε a, ε b, ε f are the apparent absorption coefficients of A/[ruthenium complex] of the MLCT absorption band at a given DNA concentration, fully bound and free ruthenium complex, respectively, K b is binding constant.
To be submitted to Journal of Biological Inorganic Chemistry intercalation.[4] The hypochromism and batochromism at MLCT bands is found usually higher for other reported polypyridyl DNA intercalative Ru(II) complexes.[5-8] To assess this interaction the intrinsic DNA-binding constant was calculated from the following equation […]
where [DNA] is the total DNA concentration in nucleotides, εa, εb, εf are the apparent absorption coefficients of A/[ruthenium complex] of the MLCT absorption band at a given DNA concentration, fully bound and free ruthenium complex, respectively, Kb is binding […]
isosbestic points and gradual decrease of the absorption of MLCT bands. This observation […]
rather week interaction with DNA it is not further discussed.
Fig. S3. Changes in absorption spectra of [Ru(dip)2(CH3bpy-DCU)]2+ and [Ru(dip)2(CH3bpy-CH3)]2+ after addition of ct-DNA. Experimental conditions: [Ru] = 10 μM; Tris/HCl pH 7.4, T = 37°C, A. [DNA] = 0 – 2 μM; B. [DNA] = 5 – 120 μM. […]

[2] = n-octan-1-ol/water partition (lipophilicity); format: physicochemical; settings: 25 °C
Description: The lipophilicity of the ruthenium(II) complexes, which is referred to log P o/w (n-octan-1-ol/water partition coefficient), was measured as following. Ruthenium complexes were dissolved in n-octan-1-ol (to mM concentration), then solutions were added to water and the mixtures were stirred sufficiently for partitioning at 25 °C for 24 h. After that the mixtures were left for equilibration for another 2 h. The concentration of the compounds in the water phase was measured spectrophotometrically and P o/w value was calculated according to the equation: PO/w=coctanolbefore-cwater/cwater , where coctanolbefore is an initial concentration of ruthenium complex, c water denotes final concentration in water. The experiment was conducted in triplicates.

[3] = tested on: Human lung adenocarcinoma epithelial cell line (A549); experiment: Alamar Blue cell viability, A549; format: cell-based; settings: A549, 24 h
Description: (§1) 10% FBS, 1% peniciline and streptomycin and 0.2% fungizone. Cells were routinely cultured at 37 °C in a humidified incubator in 5% CO2 atmosphere.
(§2) Cell viability was measured using Alamar Blue assay. Cells were seeded on 96 wells plate with density of 1 × 10^4 cells per cm2 and cultured for 1 day. Then cells were incubated with various concentrations of compounds in medium with or without 2% FBS for 24 and 48 h under normoxic and hypoxic conditions in the darkness. Next cells were washed with PBS and incubated in Alamar Blue solution for 3 h. The cell viability was quantified at 605 nm using 560 nm excitation light (VICTOR 3V multilabel plate reader PerkinElmer or Tecan Infinite200 Reader). Experiments were performed in triplicates and each experiment was performed at least three times to get the mean values ± standard derivation. The viability was calculated with regard to the untreated cells control. The IC50 values were determined using Hill equation (Origin 9.0). […]

[4] = tested on: FVB mouse lung microvascular endothelial cells (MLuMEC FVB); experiment: Alamar Blue cell viability, MLuMEC; format: cell-based; settings: 24 h
Description: (§3) FVB mouse lung microvascular endothelial cells (MLuMEC FVB) and murine endothelial cells isolated from aorta-gonad-mesonephros (AGM) region of 10.5 dpc embryos (MAgEC 10.5) were cultured in OptiMEM with Glutamax-I (Gibco Invitrogen) supplemented with 2% fetal bovine serum (FBS), 0.4% gentamycin and 0.2% fungizone. […]
as §1, §2

[5] = tested on: murine endothelial cells isolated from aorta-gonad-mesonephros (AGM) region of 10.5 dpc embryos (MAgEC 10.5); experiment: Alamar Blue cell viability, MAgEC 10.5; format: cell-based; settings: MAgEC 10.5, 24 h
Description: as §3, §1, §2

[6] = Luminescence quantum yield and lifetime in aqueous solution; format: physicochemical
Description: UV–Vis absorption spectra were recorded on a Perkin Elmer Lambda 35 spectrophotometer. Luminescence measurements were performed on a spectrofluorimeter Perkin Elmer LS55. The spectra were recorded at the room temperature in aqueous solution containing small amount of DMSO (<0.008 % v/v). The emission spectra were recorded between 470 and 860 nm upon excitation at 463 nm. The average of three scans was subjected to smoothing. For determination of the quantum yield of luminescence (Φ), aqueous solutions of [Ru(bpy)3]^2+ with a small amount of DMSO (<0.008 % v/v) were used as standards (Φ = 0.028 [14] and 0.042 [20] for air-equilibrium and deoxygenated conditions, respectively). The spectra were recorded for ruthenium complexes at the concentration less than 0.05 absorbance unit at the excitation wavelength. Values were calculated according to the following equation [21]: Φ=Φref×Aref/A×I/Iref×n^2/nref2, where I is the integrated intensity of luminescence, A is the optical density, and n is the refractive index, ref refers to the values for reference. The mean value from minimum three independent experiments was calculated.
The luminescence lifetime measurements were performed with a single photon counting technique using Fluorolog-3, Horiba Jobin Yvon. The excitation wavelength was set at 464 nm (NanoLed Diodes) and the average lifetime of luminescence was monitored at 621 nm. Luminescence decays were collected with 1,000 counts in the peak. The instrument response functions were measured using a light scattering solution of Ludox (colloidal silica, Sigma-Aldrich). Experiments were conducted at room temperature. The DAS6 software (HORIBA Scientific) was used for deconvolution of the obtained decays and for calculation of the lifetime values. The quality of the fit was judged by the χ ^2 parameter (the goodness of fit evaluation). One-exponential fit was determined to be an optimal description of the obtained results for the ruthenium compounds.

[7] = air-equilibrated conditions, excitation 463 nm

Molecule: Cc1ccnc(-c2cc(C)ccn2)c1.[Ru+2].c1ccc(-c2ccnc3c2ccc2c(-c4ccccc4)ccnc23)cc1.c1ccc(-c2ccnc3c2ccc2c(-c4ccccc4)ccnc23)cc1 [[Ru(dip)2(CH3bpy-CH3)]^2+]
K b, binding constant for formation of DNA-ruthenium(II) polypyridyl complex adducts [1]: 0.53 ± 0.03 ×10^5 M^−1
log P o/w [2]: 0.484 ± 0.046
IC50 ([3]; with serum (2%)): 11.6 ± 2.19 µM
IC50 ([3]; without serum): 5.47 ± 0.87 µM
IC50 ([4]; with serum (2%)): 8.32 ± 0.06 µM
IC50 ([4]; without serum): 3.36 ± 0.35 µM
IC50 ([5]; with serum (2%)): 6.28 ± 0.52 µM
IC50 ([5]; without serum): 2.45 ± 0.42 µM
τ, luminescence lifetime ([6]; air-equilibrated conditions): 690 ± 10 ns
φ, quantum yield of luminescence [6, 7]: 0.0254 ± 0.0009
τ, luminescence lifetime ([6]; deoxygenated conditions): 2.23 ± 0.01 µs
φ, quantum yield of luminescence ([6]; deoxygenated conditions): 0.0778 ± 0.0016

Molecule: Cc1ccnc(-c2cc(C(=O)[O-])ccn2)c1.[Ru+2].c1ccc(-c2ccnc3c2ccc2c(-c4ccccc4)ccnc23)cc1.c1ccc(-c2ccnc3c2ccc2c(-c4ccccc4)ccnc23)cc1 [[Ru(dip)2(CH3bpy-COO)]^+]
K b, binding constant for formation of DNA-ruthenium(II) polypyridyl complex adducts [1]: 1.05 ± 0.15 ×10^5 M^−1
log P o/w [2]: 1.857 ± 0.079
IC50 ([3]; with serum (2%)): 9.79 ± 0.89 µM
IC50 ([3]; without serum): 6.05 ± 1.87 µM
IC50 ([4]; with serum (2%)): 18.1 ± 2.19 µM
IC50 ([4]; without serum): 7.74 ± 1.26 µM
IC50 ([5]; with serum (2%)): 16 ± 1.5 µM
IC50 ([5]; without serum): 7.23 ± 0.53 µM
τ, luminescence lifetime ([6]; air-equilibrated conditions): 530 ± 10 ns
φ, quantum yield of luminescence [6, 7]: 0.0226 ± 0.0012
τ, luminescence lifetime ([6]; deoxygenated conditions): 1.02 ± 0.01 µs
φ, quantum yield of luminescence ([6]; deoxygenated conditions): 0.0429 ± 0.0004

Molecule: [Ru+2].c1ccc(-c2ccccn2)nc1.c1ccc(-c2ccnc3c2ccc2c(-c4ccccc4)ccnc23)cc1.c1ccc(-c2ccnc3c2ccc2c(-c4ccccc4)ccnc23)cc1 [[Ru(dip)2(bpy)]^2+]
K b, binding constant for formation of DNA-ruthenium(II) polypyridyl complex adducts [1]: 0.82 ± 0.01 ×10^5 M^−1
log P o/w [2]: 0.328 ± 0.026
IC50 ([3]; with serum (2%)): 27.7 ± 1.2 µM
IC50 ([3]; without serum): 13.5 ± 5.3 µM
IC50 ([4]; with serum (2%)): 11.7 ± 1.6 µM
IC50 ([4]; without serum): 4.7 ± 0.41 µM
IC50 ([5]; with serum (2%)): 16.7 ± 1.88 µM
IC50 ([5]; without serum): 4.15 ± 0.57 µM
τ, luminescence lifetime ([6]; air-equilibrated conditions): 760 ± 10 ns
φ, quantum yield of luminescence [6, 7]: 0.0367 ± 0.0004
τ, luminescence lifetime ([6]; deoxygenated conditions): 2.51 ± 0.01 µs
φ, quantum yield of luminescence ([6]; deoxygenated conditions): 0.1245 ± 0.0004

Molecule: O=[N+]([O-])c1nccn1CCCc1ccnc(-c2ccccn2)c1.[Ru+2].c1ccc(-c2ccnc3c2ccc2c(-c4ccccc4)ccnc23)cc1.c1ccc(-c2ccnc3c2ccc2c(-c4ccccc4)ccnc23)cc1 [[Ru(dip)2(bpy-NitroIm)]^2+]
K b, binding constant for formation of DNA-ruthenium(II) polypyridyl complex adducts [1]: 0.68 ± 0.01 ×10^5 M^−1
log P o/w [2]: 0.413 ± 0.083
IC50 ([3]; with serum (2%)): 17.5 ± 5.7 µM
IC50 ([3]; without serum): 11.8 ± 1.2 µM
IC50 ([4]; with serum (2%)): 10.4 ± 1.31 µM
IC50 ([4]; without serum): 6.08 ± 0.7 µM
IC50 ([5]; with serum (2%)): 7.4 ± 0.81 µM
IC50 ([5]; without serum): 4.65 ± 0.62 µM

log P o/w [2]: 1.114 ± 0.012
IC50 ([3]; with serum (2%)): 7.22 ± 0.34 µM
IC50 ([3]; without serum): 5.43 ± 0.11 µM
τ, luminescence lifetime ([6]; air-equilibrated conditions): 460 ± 10 ns
φ, quantum yield of luminescence [6, 7]: 0.0044 ± 0.0002
τ, luminescence lifetime ([6]; deoxygenated conditions): 1.85 ± 0.02 µs
φ, quantum yield of luminescence ([6]; deoxygenated conditions): 0.0049 ± 0.0002
Molecule: [Ru(dip)2(1,3-dicyclohexyl-1-[4-carbonyl-(4′-methyl-2,2′-bipyridyl)]-urea)]Cl2 [[Ru(dip)2(CH3bpy-DCU)]^2+]
K b, binding constant for formation of DNA-ruthenium(II) polypyridyl complex adducts [1]: 0.60 ± 0.02 ×10^5 M^−1
IC50 ([4]; with serum (2%)): 5.84 ± 0.24 µM
IC50 ([4]; without serum): 2.28 ± 0.61 µM
IC50 ([5]; with serum (2%)): 4.62 ± 0.22 µM
IC50 ([5]; without serum): 2.54 ± 1.12 µM
